Measured values as given in US10246711B2, “RNAi inhibitors of glucose-6-phosphate dehydrogenase for treating cardiovascular and pulmonary conditions” (priority 2016, dated 2019).

Legend:
Format in all cases: cell-based
[1] = tested on: polymerase delta, cyclin E1, cyclin B1; assay: Western blot of replication and cell cycle proteins in rat pulmonary artery smooth muscle cells; conditions: rat PASMC, normoxic and hypoxic conditions
Procedure: (§1) FIGS. 4A-4B are blots showing rat pulmonary artery smooth muscle cells that were cultured in 15% DMEM for 48 hr and transfected with G6PD-siRNA#1 and G6PD-siRNA#2, respectively (0.5 and 1.0 μl=50 ng and 100 ng, respectively). The cells were then subjected to hypoxia (1% 02) for 72 hr. Expression of G6PD protein was estimated using western blot analyses. UT=Untransfected; NT=non-targeting/scrambled sequence (FIG. 4A). Beta-Actin (ACTB) was used as loading control. FIG. 4B are blots showing the effect of G6PD-siRNA#2 treatment, on the expression of G6PD (FIG. 4B-panel 2), polymerase delta (FIG. 4B-panel 3), cyclin E1 (FIG. 4B-panel 4), and cyclin B (FIG. 4B-panel 5), under normoxic and hypoxic conditions, in these cells were determined using Western blot analyses. GAPDH was used as a loading control.
(§2) In FIGS. 4A-B, rat pulmonary artery smooth muscle cells were cultured in 15% DMEM for 48 hr. Cells were then transfected with G6PD-siRNA#1 and G6PD-siRNA#2, respectively (0.5 and 1.0 μl=50 ng and 100 ng, respectively) and subjected to hypoxia (1% 02) for 72 hr. […] GAPDH was used as a loading control.

G6PD protein = assay: Western blot of G6PD protein in hypoxic rat pulmonary artery smooth muscle cells; conditions: rat PASMC; 50 ng and 100 ng; hypoxia (1% O2) 72 hr; compared to untransfected (UT), non-targeting (NT) and G6PD-siRNA#1; FIG. 4A
Procedure: as §1, §2

G6PD = G6PD knockdown by G6PD-specific siRNA sequence (preliminary results); conditions: based on preliminary results
Procedure: PASM cells cultured in a 12-well plate were transfected for 72 h with 100 nmol/1 shRNA targeting G6PD using lipid-based and nano-particle based transfection system. Control experiments were performed using a nontargeting/scrambled (NT) shRNA (negative control).

Row | Substance | expression of polymerase delta ([1]; FIG. 4B-panel 3) | expression of cyclin E1 ([1]; FIG. 4B-panel 4) | expression of cyclin B1 ([1]; FIG. 4B-panel 5) | G6PD protein expression (G6PD protein) | downregulation of G6PD (G6PD)
1 | G6PD-siRNA#2: Sense (SEQ ID NO. 6) 5′ CGACGAAGCGCAGACAGCGUC 3′; Antisense (SEQ ID NO. 7) 5′GACGCUGUCUGCGCUUCGUCG3′ (listed as RNA, chemistry not given here) | significantly down-regulated | significantly down-regulated | significantly down-regulated | significantly down-regulated | –
2 | SEQ ID NO: 2: G6PD-specific siRNA gene sequence CAACAUCGCCUGCGUUAUC; nucleotide positions 922-940 of SEQ ID NO. 1 (expressed or natural sequence) | – | – | – | – | specifically and efficaciously downregulated G6PD
